Source: PubChem BioAssay AID2060507 (Molecular Pharmacology Branch, DTP, NCI, 2025)

Test system: 519858-162-T-J1-PDC complex spheroid viability
Test: Anticancer human tumor 519858-162-T-J1-PDC patient-derived colon adenocarcinoma cell line growth inhibition [GQUAD]
Conditions: for IC50: curve of first compound; for viability, T/C: stronger effect = lower value
Outline: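 Viability of tumor cells grown as complex spheroids with endothelial and stromal cells, exposed to drug combinations. Top concentration at or near clinical Cmax (else 10 microM), diluted in half-log increments.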

[1] = second compound 0.0316 µM, first compound 0.000999 µM
[2] = second compound 0.0316 µM, first compound 0.00316 µM
[3] = second compound 0.0316 µM, first compound 0.00999 µM
[4] = second compound 0.0316 µM, first compound 0.0316 µM
[5] = second compound 0.0316 µM, first compound 0.0999 µM
[6] = second compound 0.0316 µM, first compound 0.316 µM
[7] = second compound 0.1 µM, first compound 0.000999 µM
[8] = second compound 0.1 µM, first compound 0.00316 µM
[9] = second compound 0.1 µM, first compound 0.00999 µM
[10] = second compound 0.1 µM, first compound 0.0316 µM
[11] = second compound 0.1 µM, first compound 0.0999 µM
[12] = second compound 0.1 µM, first compound 0.316 µM
[13] = second compound 0.316 µM, first compound 0.000999 µM
[14] = second compound 0.316 µM, first compound 0.00316 µM
[15] = second compound 0.316 µM, first compound 0.00999 µM
[16] = second compound 0.316 µM, first compound 0.0316 µM
[17] = second compound 0.316 µM, first compound 0.0999 µM
[18] = second compound 0.316 µM, first compound 0.316 µM
[19] = second compound 1 µM, first compound 0.000999 µM
[20] = second compound 1 µM, first compound 0.00316 µM
[21] = second compound 1 µM, first compound 0.00999 µM
[22] = second compound 1 µM, first compound 0.0316 µM
[23] = second compound 1 µM, first compound 0.0999 µM
[24] = second compound 1 µM, first compound 0.316 µM
[25] = second compound 3.16 µM, first compound 0.000999 µM
[26] = second compound 3.16 µM, first compound 0.00316 µM
[27] = second compound 3.16 µM, first compound 0.00999 µM
[28] = second compound 3.16 µM, first compound 0.0316 µM
[29] = second compound 3.16 µM, first compound 0.0999 µM
[30] = second compound 3.16 µM, first compound 0.316 µM
[31] = second compound 10 µM, first compound 0.000999 µM
[32] = second compound 10 µM, first compound 0.00316 µM
[33] = second compound 10 µM, first compound 0.00999 µM
[34] = second compound 10 µM, first compound 0.0316 µM
[35] = second compound 10 µM, first compound 0.0999 µM
[36] = second compound 10 µM, first compound 0.316 µM
[37] = second compound 0.0316 µM, first compound 0.1 µM
[38] = second compound 0.0316 µM, first compound 1 µM
[39] = second compound 0.0316 µM, first compound 3.16 µM
[40] = second compound 0.0316 µM, first compound 10 µM
[41] = second compound 0.1 µM, first compound 0.1 µM
[42] = second compound 0.1 µM, first compound 1 µM
[43] = second compound 0.1 µM, first compound 3.16 µM
[44] = second compound 0.1 µM, first compound 10 µM
[45] = second compound 0.316 µM, first compound 0.1 µM
[46] = second compound 0.316 µM, first compound 1 µM
[47] = second compound 0.316 µM, first compound 3.16 µM
[48] = second compound 0.316 µM, first compound 10 µM
[49] = second compound 1 µM, first compound 0.1 µM
[50] = second compound 1 µM, first compound 1 µM
[51] = second compound 1 µM, first compound 3.16 µM
[52] = second compound 1 µM, first compound 10 µM
[53] = second compound 3.16 µM, first compound 0.1 µM
[54] = second compound 3.16 µM, first compound 1 µM
[55] = second compound 3.16 µM, first compound 3.16 µM
[56] = second compound 3.16 µM, first compound 10 µM
[57] = second compound 10 µM, first compound 0.1 µM
[58] = second compound 10 µM, first compound 1 µM
[59] = second compound 10 µM, first compound 3.16 µM
[60] = second compound 10 µM, first compound 10 µM
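Throughout, for viability, T/C: 100% = DMSO vehicle control viability.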

CC[C@@]1(O)C(=O)OCc2c1cc1n(c2=O)Cc2cc3c(CN(C)C)c(O)ccc3nc2-1 + Cc1[nH]c2ccc(F)cc2c1-c1nc2c3cccnc3c3ncccc3c2[nH]1
IC50 (second compound 0.0316 µM): > 316 nM
IC50 (second compound 0.1 µM): > 316 nM
IC50 (second compound 0.316 µM): > 316 nM
IC50 (second compound 1 µM): > 316 nM
IC50 (second compound 3.16 µM): 0.999 nM
IC50 (second compound 10 µM): > 316 nM
viability, T/C [1]: 119%
viability, T/C [2]: 106%
viability, T/C [3]: 103%
viability, T/C [4]: 76.5%
viability, T/C [5]: 72.1%
viability, T/C [6]: 88.9%
viability, T/C [7]: 86%
viability, T/C [8]: 90.9%
viability, T/C [9]: 94.3%
viability, T/C [10]: 88.9%
viability, T/C [11]: 73.2%
viability, T/C [12]: 75.5%
viability, T/C [13]: 58.7%
viability, T/C [14]: 97.1%
viability, T/C [15]: 99.3%
viability, T/C [16]: 93.8%
viability, T/C [17]: 97.2%
viability, T/C [18]: 69.4%
viability, T/C [19]: 86%
viability, T/C [20]: 60.9%
viability, T/C [21]: 85.1%
viability, T/C [22]: 104%
viability, T/C [23]: 69.7%
viability, T/C [24]: 75.9%
viability, T/C [25]: 56.4%
viability, T/C [26]: 55.6%
viability, T/C [27]: 46.5%
viability, T/C [28]: 48.6%
viability, T/C [29]: 78.1%
viability, T/C [30]: 77.1%
viability, T/C [31]: 60%
viability, T/C [32]: 58.3%
viability, T/C [33]: 50.7%
viability, T/C [34]: 60.9%
viability, T/C [35]: 85.3%
viability, T/C [36]: 60%

CCc1c2c(nc3ccc(O)cc13)-c1cc3c(c(=O)n1C2)COC(=O)[C@]3(O)CC + Cc1[nH]c2ccc(F)cc2c1-c1nc2c3cccnc3c3ncccc3c2[nH]1
IC50 (second compound 0.0316 µM): > 316 nM
IC50 (second compound 0.1 µM): > 316 nM
IC50 (second compound 0.316 µM): > 316 nM
IC50 (second compound 1 µM): > 316 nM
IC50 (second compound 3.16 µM): > 316 nM
IC50 (second compound 10 µM): < 0.999 nM
viability, T/C [1]: 124%
viability, T/C [2]: 86%
viability, T/C [3]: 70.5%
viability, T/C [4]: 86.6%
viability, T/C [5]: 56.6%
viability, T/C [6]: 62.8%
viability, T/C [7]: 85%
viability, T/C [8]: 96.9%
viability, T/C [9]: 63.7%
viability, T/C [10]: 63.2%
viability, T/C [11]: 84.2%
viability, T/C [12]: 52.9%
viability, T/C [13]: 99.9%
viability, T/C [14]: 105%
viability, T/C [15]: 60.8%
viability, T/C [16]: 53.9%
viability, T/C [17]: 63.4%
viability, T/C [18]: 59.4%
viability, T/C [19]: 89.8%
viability, T/C [20]: 75.2%
viability, T/C [21]: 78.2%
viability, T/C [22]: 83.6%
viability, T/C [23]: 54.6%
viability, T/C [24]: 62.8%
viability, T/C [25]: 68.5%
viability, T/C [26]: 53.3%
viability, T/C [27]: 47.8%
viability, T/C [28]: 61.1%
viability, T/C [29]: 80%
viability, T/C [30]: 49.9%
viability, T/C [31]: 39.9%
viability, T/C [32]: 50.2%
viability, T/C [33]: 69.7%
viability, T/C [34]: 56.6%
viability, T/C [35]: 74.5%
viability, T/C [36]: 76.2%

COc1cc(C2c3cc4c(cc3C(OC3OC5COC(C)OC5C(O)C3O)C3COC(=O)C23)OCO4)cc(OC)c1O (stereo not drawn) + Cc1[nH]c2ccc(F)cc2c1-c1nc2c3cccnc3c3ncccc3c2[nH]1
IC50 (second compound 0.0316 µM): > 10000 nM
IC50 (second compound 0.1 µM): > 10000 nM
IC50 (second compound 0.316 µM): > 10000 nM
IC50 (second compound 1 µM): > 10000 nM
IC50 (second compound 3.16 µM): > 10000 nM
IC50 (second compound 10 µM): > 10000 nM
viability, T/C [4]: 114%
viability, T/C [37]: 99.6%
viability, T/C [6]: 93.8%
viability, T/C [38]: 124%
viability, T/C [39]: 98.2%
viability, T/C [40]: 64.6%
viability, T/C [10]: 127%
viability, T/C [41]: 130%
viability, T/C [12]: 93.2%
viability, T/C [42]: 89.8%
viability, T/C [43]: 55.6%
viability, T/C [44]: 60.4%
viability, T/C [16]: 90.6%
viability, T/C [45]: 109%
viability, T/C [18]: 57.4%
viability, T/C [46]: 86.5%
viability, T/C [47]: 86.9%
viability, T/C [48]: 78.4%
viability, T/C [22]: 88.8%
viability, T/C [49]: 75.8%
viability, T/C [24]: 108%
viability, T/C [50]: 75.9%
viability, T/C [51]: 81%
viability, T/C [52]: 71.4%
viability, T/C [28]: 65.9%
viability, T/C [53]: 76.9%
viability, T/C [30]: 66.9%
viability, T/C [54]: 75%
viability, T/C [55]: 58.6%
viability, T/C [56]: 80.3%
viability, T/C [34]: 69.4%
viability, T/C [57]: 63.4%
viability, T/C [36]: 65.8%
viability, T/C [58]: 68.5%
viability, T/C [59]: 74.8%
viability, T/C [60]: 82.7%

Nc1ccn(C2OC(CO)C(O)C2(F)F)c(=O)n1 (stereo not drawn) + Cc1[nH]c2ccc(F)cc2c1-c1nc2c3cccnc3c3ncccc3c2[nH]1
IC50 (second compound 0.0316 µM): > 10000 nM
IC50 (second compound 0.1 µM): > 10000 nM
IC50 (second compound 0.316 µM): > 10000 nM
IC50 (second compound 1 µM): > 10000 nM
IC50 (second compound 3.16 µM): > 10000 nM
IC50 (second compound 10 µM): > 10000 nM
viability, T/C [4]: 131%
viability, T/C [37]: 69.3%
viability, T/C [6]: 89.4%
viability, T/C [38]: 80.1%
viability, T/C [39]: 83%
viability, T/C [40]: 72.3%
viability, T/C [10]: 85.9%
viability, T/C [41]: 143%
viability, T/C [12]: 70.5%
viability, T/C [42]: 71%
viability, T/C [43]: 82.9%
viability, T/C [44]: 102%
viability, T/C [16]: 93.3%
viability, T/C [45]: 116%
viability, T/C [18]: 78.5%
viability, T/C [46]: 57.9%
viability, T/C [47]: 70%
viability, T/C [48]: 69.8%
viability, T/C [22]: 90.7%
viability, T/C [49]: 81.9%
viability, T/C [24]: 89.5%
viability, T/C [50]: 76.9%
viability, T/C [51]: 84.2%
viability, T/C [52]: 73.7%
viability, T/C [28]: 54.4%
viability, T/C [53]: 76.8%
viability, T/C [30]: 61.9%
viability, T/C [54]: 47.2%
viability, T/C [55]: 95.4%
viability, T/C [56]: 60.5%
viability, T/C [34]: 82.4%
viability, T/C [57]: 73.5%
viability, T/C [36]: 73%
viability, T/C [58]: 68.9%
viability, T/C [59]: 108%
viability, T/C [60]: 54.2%
